Activity calls are given as the source filed them.
Key:
[1] = Shn3 3'UTR reporter signal decrease – cell-based, Clone20 osteoblasts, firefly luciferase, cherry-pick, set 2, Schnurri-3 inhibitor project, dose response (AID 720490); assay type: functional;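 further: actives lower the luminescence signal as inhibitors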
[2] = loss of viability in HepG2 cells – cell-based, CellTiter-Glo, cherry-picked, cytotoxicity control for Shn3 inhibitor project, dose response (AID 624134); assay type: functional
[3] = non-specific 3'UTR reporter inhibition in Clone20-Shn3RL – cell-based, Renilla luciferase, cherry-picked, counter-screen for Shn3 inhibitor project, dose response (AID 624133); assay type: functional
[4] = biological target: Protein Wnt-3a (Mus musculus, UniProt P27467); assay: antagonism of Wnt3a pathway luciferase reporter – Wnt-LIGHT cells, luminescence, selectivity assay for Gli-SUFU antagonist project, dose response (AID 651570); assay type: functional; settings: read-out: IC50_Mean;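 further: Wnt-LIGHT reporter cells stimulated with conditioned medium from Wnt3a-producing cells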
Sequence of Protein Wnt-3a (P27467 whole entry): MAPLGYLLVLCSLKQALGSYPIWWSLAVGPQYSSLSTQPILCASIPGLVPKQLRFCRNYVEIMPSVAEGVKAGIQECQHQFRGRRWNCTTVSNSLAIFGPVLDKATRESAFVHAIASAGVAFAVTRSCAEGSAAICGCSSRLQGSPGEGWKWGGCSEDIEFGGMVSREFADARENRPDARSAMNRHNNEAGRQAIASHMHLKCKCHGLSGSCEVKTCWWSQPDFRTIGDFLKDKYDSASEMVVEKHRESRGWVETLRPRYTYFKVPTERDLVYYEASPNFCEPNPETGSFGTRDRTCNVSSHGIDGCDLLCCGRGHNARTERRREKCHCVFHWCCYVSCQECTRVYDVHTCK

[5] = reduction of Shn3 3'UTR-driven luciferase in osteoblasts – cell-based, Clone20 osteoblasts, firefly luciferase, cherry-picked, dose response (AID 624132); assay type: functional;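 further: firefly luciferase luminescence from reporter carrying the Shn3 3'UTR in osteoblasts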
[6] = biological target: T1, Fibrinogen beta chain (Homo sapiens, UniProt P02675); assay: Fluorescence polarization-based biochemical high throughput dose response assay to identify inhibitors that disrupt the binding of a cyclic peptide (Tn7) to the fibrin proteolytic product D-Dimer and fragment E complex [DD(E )].
T1 sequence (P02675 whole entry, the tested form may be a part): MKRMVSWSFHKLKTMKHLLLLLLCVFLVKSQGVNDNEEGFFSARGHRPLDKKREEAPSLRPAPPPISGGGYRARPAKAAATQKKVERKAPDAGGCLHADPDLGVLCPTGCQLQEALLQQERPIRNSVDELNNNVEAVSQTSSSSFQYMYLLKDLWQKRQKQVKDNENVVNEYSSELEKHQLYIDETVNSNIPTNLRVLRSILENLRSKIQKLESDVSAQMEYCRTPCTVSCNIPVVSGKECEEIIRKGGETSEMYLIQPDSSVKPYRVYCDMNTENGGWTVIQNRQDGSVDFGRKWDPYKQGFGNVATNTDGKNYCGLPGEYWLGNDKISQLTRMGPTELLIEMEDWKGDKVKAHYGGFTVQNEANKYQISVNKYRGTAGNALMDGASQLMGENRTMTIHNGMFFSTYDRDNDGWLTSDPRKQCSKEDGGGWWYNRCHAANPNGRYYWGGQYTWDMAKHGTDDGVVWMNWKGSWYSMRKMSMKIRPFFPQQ

[7] = biological target: T2, Protein skinhead-1 (Caenorhabditis elegans, UniProt P34707); assay type: functional
T2 sequence (P34707 whole entry): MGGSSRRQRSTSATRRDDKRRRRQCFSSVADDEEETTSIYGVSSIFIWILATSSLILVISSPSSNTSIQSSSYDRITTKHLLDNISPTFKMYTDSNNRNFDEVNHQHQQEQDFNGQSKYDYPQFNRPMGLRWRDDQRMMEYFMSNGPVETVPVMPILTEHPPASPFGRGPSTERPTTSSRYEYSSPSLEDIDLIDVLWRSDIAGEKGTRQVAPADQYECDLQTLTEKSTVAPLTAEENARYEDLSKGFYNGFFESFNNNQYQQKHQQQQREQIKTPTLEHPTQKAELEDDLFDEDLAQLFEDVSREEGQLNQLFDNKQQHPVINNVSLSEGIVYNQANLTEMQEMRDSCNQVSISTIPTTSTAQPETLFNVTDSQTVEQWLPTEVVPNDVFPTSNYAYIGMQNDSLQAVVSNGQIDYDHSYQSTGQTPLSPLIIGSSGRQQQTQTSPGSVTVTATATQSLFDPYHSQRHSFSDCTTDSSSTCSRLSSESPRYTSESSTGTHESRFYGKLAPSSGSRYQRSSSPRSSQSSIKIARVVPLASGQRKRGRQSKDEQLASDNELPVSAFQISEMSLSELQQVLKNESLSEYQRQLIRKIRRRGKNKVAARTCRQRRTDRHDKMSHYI

[8] = biological target: T1, Fibrinogen beta chain; assay: Fluorescence polarization-based biochemical high throughput dose response assay to identify inhibitors that disrupt the binding of a cyclic peptide (Tn6) to the fibrin proteolytic product D-Dimer and fragment E complex [DD(E )].
[9] = OVCAR4 cell viability loss – plate reader, dry powder, SA11, cytotoxicity control for PAX8 inhibitor project, dose response (AID 743150); assay type: functional, cell-based; settings: OVCAR-4
[10] = P. falciparum Dd2 growth inhibitors, dose response, SYBR Green, cherry-picked samples (AID 1159567); assay type: functional, cell-based
[11] = PAX5 cellular inhibition readout – cell-based, plate reader, dry powder samples, selectivity assay for PAX8 inhibitor project, dose response (AID 743047); assay type: functional;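 further: HEK293 cells carrying a Pax5 driven CD19 promoter luciferase reporter; potency of inhibitors that lower reporter luminescence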
[12] = COV434 cell viability loss – plate reader, dry powder, SA7, cytotoxicity control for PAX8 inhibitor project, dose response (AID 743145); assay type: functional, cell-based
[13] = PAX8-dependent cell viability loss – plate reader, dry powder, dose response (AID 743049); assay type: functional, cell-based
[14] = OVCAR-3 cell viability loss – plate reader, dry powder samples, PAX8 inhibitor project, dose response (AID 743044); assay type: functional, cell-based
[15] = inhibitors acting on PAX2 in cells – cell-based, plate reader, dry powder samples, selectivity assay for PAX8 inhibitor project, dose response (AID 743048); assay type: functional;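 further: HEK293 cells carrying a WT1 promoter luciferase reporter driven by expressed Pax2; potency is for inhibition of Pax2 driven reporter signal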
[16] = OV-90 cell viability loss – plate reader, dry powder, SA8, PAX8 inhibitor project, dose response (AID 743149); assay type: functional, cell-based
[17] = toxicity to human hepatoma HepG2 cells – cell-based, cherry-picked samples, cytotoxicity control, dose response (AID 1159577); assay type: functional
[18] = COV362 cell viability loss – plate reader, dry powder, SA12, cytotoxicity control for PAX8 inhibitor project, dose response (AID 743144); assay type: functional, cell-based
[19] = growth inhibition of PfATP4-mutant resistant parasites – NITD609-resistant line, SYBR Green, dry powder, dose response (AID 1159571); assay type: functional, cell-based;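 further: parasites synchronized at ring stage by sorbitol before testing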
[20] = growth inhibition of yeast DHODH-expressing 3D7 parasites – SYBR Green, dry powder samples, dose response (AID 1159570); assay type: functional, cell-based;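 further: parasite growth measured after 72 hours of compound exposure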
[21] = Dd2 malaria parasite growth inhibition potency – SYBR Green, dry powder samples, dose response (AID 1159566); assay type: functional, cell-based;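 further: potency for growth inhibition with lower SYBR green DNA signal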
[22] = biological target: Paired box protein Pax-8 (Homo sapiens, UniProt Q06710); assay: PAX8 transcriptional activity inhibition in RMG-I – RMG-I cells, luciferase, cherry-pick, dose response (AID 687027); assay type: functional, cell-based;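 further: luciferase reporter driven by Pax8 target thyroperoxidase promoter measured by SteadyGlo luminescence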
[23] = biological target: Peroxisome proliferator-activated receptor gamma/Nuclear receptor corepressor 2 (Homo sapiens, UniProt P37231+Q9Y618); assay: Counterscreen for NR2E3 inverse agonists: TR-FRET-based biochemical high throughput dose response assay to identify inverse agonists of the interaction between peroxisome proliferator-activated receptor gamma (PPARg) and nuclear receptor co-repressor 2 (NCOR2).; assay type: functional
Sequence of Peroxisome proliferator-activated receptor gamma/Nuclear receptor corepressor 2 (P37231 whole entry): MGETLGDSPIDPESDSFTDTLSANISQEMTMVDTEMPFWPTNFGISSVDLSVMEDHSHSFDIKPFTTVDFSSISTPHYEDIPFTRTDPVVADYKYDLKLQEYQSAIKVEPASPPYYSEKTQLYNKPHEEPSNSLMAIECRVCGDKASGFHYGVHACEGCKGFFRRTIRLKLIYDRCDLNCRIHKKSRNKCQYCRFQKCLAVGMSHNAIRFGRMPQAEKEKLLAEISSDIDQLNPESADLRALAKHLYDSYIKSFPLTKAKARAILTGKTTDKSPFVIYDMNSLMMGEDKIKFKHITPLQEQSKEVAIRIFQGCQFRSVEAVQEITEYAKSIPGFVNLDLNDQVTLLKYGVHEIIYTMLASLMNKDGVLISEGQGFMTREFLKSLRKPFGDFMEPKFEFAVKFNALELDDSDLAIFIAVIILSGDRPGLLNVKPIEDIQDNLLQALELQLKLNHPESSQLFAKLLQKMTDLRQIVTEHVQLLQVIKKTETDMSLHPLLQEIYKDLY
Sequence of Peroxisome proliferator-activated receptor gamma/Nuclear receptor corepressor 2 (Q9Y618 whole entry): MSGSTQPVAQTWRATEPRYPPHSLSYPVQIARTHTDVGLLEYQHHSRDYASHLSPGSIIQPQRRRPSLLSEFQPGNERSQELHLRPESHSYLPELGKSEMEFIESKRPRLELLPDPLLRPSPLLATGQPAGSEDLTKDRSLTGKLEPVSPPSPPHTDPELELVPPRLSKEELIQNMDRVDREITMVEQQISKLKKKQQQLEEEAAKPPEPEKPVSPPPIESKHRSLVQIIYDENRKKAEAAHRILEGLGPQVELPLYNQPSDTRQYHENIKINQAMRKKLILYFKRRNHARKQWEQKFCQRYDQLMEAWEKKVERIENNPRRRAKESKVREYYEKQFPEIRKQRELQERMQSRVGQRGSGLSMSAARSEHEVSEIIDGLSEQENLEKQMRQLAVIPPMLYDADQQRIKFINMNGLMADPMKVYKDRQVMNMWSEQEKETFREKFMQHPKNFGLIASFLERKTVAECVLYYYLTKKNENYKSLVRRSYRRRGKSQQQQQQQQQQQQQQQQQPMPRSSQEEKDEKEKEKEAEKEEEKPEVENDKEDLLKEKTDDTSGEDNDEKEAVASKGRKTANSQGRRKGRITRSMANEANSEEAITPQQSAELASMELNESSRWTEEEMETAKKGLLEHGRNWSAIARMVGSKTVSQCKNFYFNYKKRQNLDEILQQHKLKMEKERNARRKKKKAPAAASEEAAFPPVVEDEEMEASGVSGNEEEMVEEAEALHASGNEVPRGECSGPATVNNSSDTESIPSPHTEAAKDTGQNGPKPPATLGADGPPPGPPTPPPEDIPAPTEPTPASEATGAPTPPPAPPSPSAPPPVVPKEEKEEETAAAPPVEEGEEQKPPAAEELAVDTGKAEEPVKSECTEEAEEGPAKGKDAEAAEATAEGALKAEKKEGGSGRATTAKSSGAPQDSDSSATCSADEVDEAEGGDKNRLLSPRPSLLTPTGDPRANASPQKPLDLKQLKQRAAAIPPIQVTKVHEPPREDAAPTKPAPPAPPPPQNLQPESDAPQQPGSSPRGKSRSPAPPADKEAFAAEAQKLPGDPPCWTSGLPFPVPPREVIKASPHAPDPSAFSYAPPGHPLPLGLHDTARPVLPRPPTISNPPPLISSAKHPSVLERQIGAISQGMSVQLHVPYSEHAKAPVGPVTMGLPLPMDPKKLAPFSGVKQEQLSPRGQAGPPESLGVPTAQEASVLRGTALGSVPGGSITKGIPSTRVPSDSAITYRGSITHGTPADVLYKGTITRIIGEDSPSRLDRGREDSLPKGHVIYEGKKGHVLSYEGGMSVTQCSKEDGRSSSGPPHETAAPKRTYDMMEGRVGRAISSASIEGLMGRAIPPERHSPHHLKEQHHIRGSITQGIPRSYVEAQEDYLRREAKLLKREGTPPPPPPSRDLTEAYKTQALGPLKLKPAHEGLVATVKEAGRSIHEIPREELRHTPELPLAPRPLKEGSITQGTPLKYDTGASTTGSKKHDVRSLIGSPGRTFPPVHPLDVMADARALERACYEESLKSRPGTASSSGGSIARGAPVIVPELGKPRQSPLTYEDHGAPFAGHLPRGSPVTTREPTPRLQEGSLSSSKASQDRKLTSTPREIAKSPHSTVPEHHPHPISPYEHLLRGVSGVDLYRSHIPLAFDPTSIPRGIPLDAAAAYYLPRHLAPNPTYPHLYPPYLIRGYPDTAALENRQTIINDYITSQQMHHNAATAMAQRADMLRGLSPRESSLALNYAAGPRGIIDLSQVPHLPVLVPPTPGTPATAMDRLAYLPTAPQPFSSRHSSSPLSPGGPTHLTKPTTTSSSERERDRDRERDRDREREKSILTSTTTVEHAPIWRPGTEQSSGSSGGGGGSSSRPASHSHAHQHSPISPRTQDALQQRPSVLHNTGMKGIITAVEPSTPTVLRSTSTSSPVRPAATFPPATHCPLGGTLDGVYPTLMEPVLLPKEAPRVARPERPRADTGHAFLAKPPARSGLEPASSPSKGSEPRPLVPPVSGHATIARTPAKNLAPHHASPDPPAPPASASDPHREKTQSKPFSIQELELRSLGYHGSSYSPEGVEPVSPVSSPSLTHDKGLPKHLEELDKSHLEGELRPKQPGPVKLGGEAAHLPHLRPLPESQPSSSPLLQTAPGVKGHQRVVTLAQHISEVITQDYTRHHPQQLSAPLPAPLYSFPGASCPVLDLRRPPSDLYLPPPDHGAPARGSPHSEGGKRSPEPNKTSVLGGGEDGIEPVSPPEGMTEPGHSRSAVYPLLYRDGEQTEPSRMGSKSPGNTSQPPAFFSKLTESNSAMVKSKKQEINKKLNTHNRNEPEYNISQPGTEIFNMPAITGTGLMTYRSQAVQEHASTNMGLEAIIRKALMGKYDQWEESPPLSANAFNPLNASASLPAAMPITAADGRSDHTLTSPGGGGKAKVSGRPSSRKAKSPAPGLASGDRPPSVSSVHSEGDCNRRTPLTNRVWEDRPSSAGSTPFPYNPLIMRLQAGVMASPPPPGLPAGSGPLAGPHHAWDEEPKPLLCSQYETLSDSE

[24] = biological target: T3, Small ubiquitin-related modifier 1 (Homo sapiens, UniProt P63165); assay: SUMO1 protein-protein binding blockers, potency – biochemical, FRET, dose response (AID 624383); assay type: functional; settings: read-out: IC50_Mean
T3 sequence (P63165 whole entry, the tested form may be a part): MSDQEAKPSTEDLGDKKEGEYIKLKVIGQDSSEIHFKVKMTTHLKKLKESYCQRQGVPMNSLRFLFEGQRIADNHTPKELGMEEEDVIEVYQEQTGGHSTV

[25] = biological target: E3 ubiquitin-protein ligase UHRF1 (Homo sapiens, UniProt Q96T88); assay: Counterscreen for inhibitors of 5-meCpG-binding domain protein 2 (MBD2): TRFRET-based biochemical high throughput dose response assay to identify inhibitors of binding of ubiquitin-like with PHD and ring finger domains 1 (UHRF1) to methylated oligonucleotide.
[26] = biological target: T3, Small ubiquitin-related modifier 1; assay: SUMO1 protein interaction blockers, potency – biochemical, fluorescence polarization, uHTS hits, dose response (AID 624382); assay type: functional; settings: read-out: IC50_Mean
[27] = biological target: Photoreceptor-specific nuclear receptor (Homo sapiens, UniProt Q9Y5X4); assay: ligands suppressing NR2E3 nuclear receptor activity – biochemical, TR-FRET, dose response (AID 463256); assay type: functional
Sequence of Photoreceptor-specific nuclear receptor (Q9Y5X4 whole entry): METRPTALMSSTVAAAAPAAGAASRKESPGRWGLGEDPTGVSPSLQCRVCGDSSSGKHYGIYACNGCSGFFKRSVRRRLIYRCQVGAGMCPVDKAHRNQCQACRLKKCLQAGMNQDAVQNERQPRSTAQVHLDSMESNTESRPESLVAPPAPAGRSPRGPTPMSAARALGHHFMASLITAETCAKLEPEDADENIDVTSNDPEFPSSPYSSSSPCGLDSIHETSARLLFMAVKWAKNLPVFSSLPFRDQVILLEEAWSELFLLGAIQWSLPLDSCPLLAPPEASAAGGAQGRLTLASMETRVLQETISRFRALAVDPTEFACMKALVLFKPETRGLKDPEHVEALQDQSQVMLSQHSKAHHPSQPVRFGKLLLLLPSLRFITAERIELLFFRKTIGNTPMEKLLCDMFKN

[28] = inhibitors of non-replicating M. tuberculosis, dose response, luciferase, dry powder (AID 651620); assay type: functional; settings: Mycobacterium tuberculosis
[29] = inhibitors of non-replicating M. tuberculosis, dose response, luciferase, dry powder (AID 651619); assay type: functional; settings: Mycobacterium tuberculosis
[30] = HeLa cell viability loss – plate reader, dry powder, cytotoxicity control, dose response (AID 651946); assay type: functional, cell-based
[31] = viability loss in HEK293T cells – cell-based, CellTiter-Glo luminescence, dry powder, set 6, cytotoxicity control, dose response (AID 651949); assay type: functional; settings: HEK293
[32] = biological target: NAD-dependent protein deacylase sirtuin-5, mitochondrial (Homo sapiens, UniProt Q9NXA8); assay: blockers of sirtuin-5 peptide desuccinylation – biochemical, fluorescence imaging, cherry-pick, set 6, dose response (AID 720597)
Sequence of NAD-dependent protein deacylase sirtuin-5, mitochondrial (Q9NXA8 whole entry, the tested form may be a part): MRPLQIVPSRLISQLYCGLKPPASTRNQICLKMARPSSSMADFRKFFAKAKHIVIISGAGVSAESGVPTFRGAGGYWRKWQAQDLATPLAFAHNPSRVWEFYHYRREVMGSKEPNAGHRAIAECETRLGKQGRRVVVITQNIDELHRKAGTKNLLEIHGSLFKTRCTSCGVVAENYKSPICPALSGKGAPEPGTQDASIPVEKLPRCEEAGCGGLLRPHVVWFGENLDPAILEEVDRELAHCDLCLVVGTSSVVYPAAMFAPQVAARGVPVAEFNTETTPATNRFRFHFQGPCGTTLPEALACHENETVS

[33] = biological target: T4, Oxysterols receptor LXR-beta (Homo sapiens, UniProt P55055); assay type: functional, cell-based;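 further: Cell-based luminescence dose-response assay of agonist activity at LXR, run as a confirmatory counterscreen to a daf-12 agonist screen; agonist potency from rising luciferase signal of a Gal4-LXR reporter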
T4 sequence (P55055 whole entry): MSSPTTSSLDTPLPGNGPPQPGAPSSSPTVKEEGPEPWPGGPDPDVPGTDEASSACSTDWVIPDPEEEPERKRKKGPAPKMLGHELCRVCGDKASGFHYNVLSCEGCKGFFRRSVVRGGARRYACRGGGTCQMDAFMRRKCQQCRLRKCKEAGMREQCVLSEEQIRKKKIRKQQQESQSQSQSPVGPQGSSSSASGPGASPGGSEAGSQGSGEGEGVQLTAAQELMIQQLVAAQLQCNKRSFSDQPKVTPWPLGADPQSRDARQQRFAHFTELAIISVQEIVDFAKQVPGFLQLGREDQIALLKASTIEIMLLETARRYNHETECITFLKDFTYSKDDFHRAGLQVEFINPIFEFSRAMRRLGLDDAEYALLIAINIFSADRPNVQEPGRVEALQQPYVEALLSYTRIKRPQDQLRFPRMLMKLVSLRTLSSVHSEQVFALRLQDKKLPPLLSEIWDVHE

[34] = cells
[35] = biological target: T4, Oxysterols receptor LXR-beta; assay: LXR agonists, Gal4 luciferase reporter, dose response, counter-screen for ssDAF-12 agonist project, cell-based, luminescence, HEK293, S. stercoralis campaign (AID 720737); assay type: functional; settings: read-out: IC50 (the source's name)
[36] = system: HT-1080; assay: HT1080 cell viability loss – fluorescence readout (AID 620); assay type: functional, cell-based; settings: Homo sapiens
[37] = Luminescence-based cell-based high throughput dose response assay to identify activators of the DAF-12 from the parasite S. stercoralis (ssDAF-12).; assay type: functional
[38] = biological target: Luciferin 4-monooxygenase (Photinus pyralis, UniProt P08659); assay: Counter Screen for Luciferase-based Assay Positives. [Related pubchem assays: 620, 618, 411 ]

With CC(C)Cn1c(N)c(C(=O)COC(=O)C2Cc3ccccc3CN2S(C)(=O)=O)c(=O)n(C)c1=O (stereo not drawn) the AC50 [1] was 0.897 µM (active), the AC50 [2] was > 70 µM (inactive) and the AC50 [3] was 4.76 µM (active). For the same molecule, the IC50 [4] was 6.31 µM (active) and the AC50 [5] was 0.72 µM (active).
In the case of c1ccc2c(c1)CCN(C1=Nc3cccc4cccc1c34)C2, the IC50 [6] was > 83.3 µM (inactive), the IC50 [7] was > 100 µM (inactive) and the IC50 [8] was 46.1 µM (inactive).
For N#C[C@H]1[C@@H](c2ccc(C#Cc3ccccc3F)cc2)[C@@H](CO)N1C(=O)C1CCCCC1, the AC50 [9] was 3.01 µM (active), the AC50 [10] was 1.09 µM (active) and the AC50 [11] was 13 µM (active). The AC50 [12] was 20.3 µM (active), the AC50 [13] was 7.86 µM (active) and the AC50 [14] was 16.1 µM (active). The AC50 [15] was 14.2 µM (active), the AC50 [16] was 27.7 µM (active) and the AC50 [17] was > 39 µM (inactive). The AC50 [18] was 36.2 µM (active), the AC50 [19] was 1.23 µM (active) and the AC50 [20] was 0.8 µM (active). For the same molecule, the AC50 [21] was 0.584 µM (active) and the AC50 [22] was 3.09 µM (active).
In the case of N#CCC(=O)Nc1ccc(C(=O)OCC(=O)c2ccc3c(c2)NC(=O)CO3)cc1, the IC50 [23] was 4.39 µM (active), the IC50 [24] was 10.1 µM (active) and the IC50 [25] was > 43.8 µM (inactive). For the same molecule, the IC50 [26] was > 66.6 µM (inactive) and the IC50 [27] was 4.46 µM (active).
With Fc1ccc(Cn2cc(CSc3nnc(-c4ccc(Cl)cc4)o3)nn2)cc1 the IC90 [28] was 1 µM (active), the IC90 [29] was 1 µM (active) and the AC50 [30] was > 52 µM (inactive). The AC50 [31] was > 52 µM (inactive).
For C[C@H](CO)N1C[C@H](C)[C@H](CN(C)C(=O)Cc2ccccc2)Oc2ncc(C3=CCCCC3)cc2C1=O, the AC50 [32] was > 30 µM (inactive).
In the case of O=C1c2ccccc2C(=O)C1c1nccc2ccccc12, the EC50 [33] was > 67.5 µM (inactive), the EC50 [34] was > 67.5 µM (inactive) and the EC50 [35] was > 67.5 µM (inactive). For the same molecule, the EC50 [36] was > 50 µM (not active), the IC50 [37] was > 67.5 µM (inactive) and the EC50 [38] was 1.3 µM (active).
